Reference: patent publication US20070243629A1, “High Affinity Ligands for Influenza Virus and Methods for Their Production” (Glykos Finland Oy, priority 2003, published 2007)

Key:
Format in all cases: binding, human influenza virus A
Design in all cases: key: “+” = binding; “−” = no binding; “(+)” = trace binding
A/Taiwan/1/86 H1N1 = test system: A/Taiwan/1/86 H1N1
A/Beijing/262/95 H1N1 = test system: A/Beijing/262/95 H1N1
A/New Caledonia/20/99 = test system: A/New Caledonia/20/99
A/Kiev/301/94 H3N2 = test system: A/Kiev/301/94 H3N2
A/Shangdong/9/93 H3N2 = test system: A/Shangdong/9/93 H3N2
A/PR/8/34 H1N1 = test system: A/PR/8/34 H1N1
A/X31, A/Aichi/3/75 H3N2 = test system: A/X31, A/Aichi/3/75 H3N2
A/2/Japan/305/57 H2N2 = test system: A/2/Japan/305/57 H2N2
A/Hong Kong/8/68 H3N2 = test system: A/Hong Kong/8/68 H3N2

Measured: Binding of different human influenza virus A strains to glycolipids

Globoside
−: all assays above
